Assay results as given in US20220227859A1, “METHOD TO TREAT TYPE 2 INFLAMMATION OR MAST-CELL DEPENDENT DISEASE” (INSERM (INSTITUT NATIONAL DE LA SANTÉ ET DE LA RECHERCHE …, priority 2019, published 2022).

Key:
TRPV1+ nociceptors [1] = conditions: mouse, in vivo
TRPV1+ nociceptors [2] = conditions: mouse, in vivo; remark: listed apart in the source
skin MCs = assay: In vivo two-photon microscopy of Pirt-GCaMP3 mice: degranulation of Av.SRho+ MCs; set-up: species or system mouse; conditions: for degranulation of Av.SRho+ MCs: mouse, in vivo
DRG neurons = type: cell-based, mouse

Row | Compound | expression of the stress marker K-6 (TRPV1+ nociceptors [1]) | filaggrin organization (TRPV1+ nociceptors [1]) | skin lesions development and tested pathological features (TRPV1+ nociceptors [1]) | GCaMP3 fluorescence levels in skin neurons (TRPV1+ nociceptors [2]) | time by which increase in GCaMP3 fluorescence preceded degranulation of cognate Av.SRho+ MCs (skin MCs; i.d. 1 μM, video recorded for 60 minutes) | degranulation of Av.SRho+ MCs (skin MCs) | intracellular calcium levels in DRG neurons (DRG neurons)
1 | C=C(C)[C@]12C[C@@H](C)[C@@]34O[C@](Cc5ccccc5)(O[C@@H]1[C@@H]3C=C(COC(=O)Cc1ccc(O)c(OC)c1)C[C@]1(O)C(=O)C(C)=C[C@@H]41)O2 [RTX, resiniferatoxin] | decreased | restored | strong reduction |  |  |  | 
2 | COc1cc(CNC(=O)CCCC/C=C/C(C)C)ccc1O [capsaicin] |  |  |  | strong increase | 10 to 15 min | most of Av.SRho^+ MCs exhibited a degranulated phenotype | 
3 | Staphylococcal enterotoxin B [SEB] |  |  |  | significant increase |  | presence of adjacent degranulated Av.SRho^+ MCs | weak
